Data taken from PubChem BioAssay (NCI).
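48-hour exposure; five concentrations; linearly interpolated endpoints. GI50 = concentration required for 50% inhibition of growth. TGI: total growth inhibition.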

How the values were obtained:
Assay in all cases: NCI-60 cell line screen, 48 h
786-0 renal = system: 786-0 renal
A498 renal = system: A498 renal
A549 NSCLC = system: A549 NSCLC
ACHN renal = system: ACHN renal
BT-549 breast = system: BT-549 breast
CAKI-1 renal = system: CAKI-1 renal
CCRF-CEM leukemia = system: CCRF-CEM leukemia
COLO 205 colon = system: COLO 205 colon
DU-145 prostate = system: DU-145 prostate
HCC-2998 colon = system: HCC-2998 colon
HCT-116 colon = system: HCT-116 colon
HCT-15 colon = system: HCT-15 colon
HL-60(TB) leukemia = system: HL-60(TB) leukemia
HOP-62 NSCLC = system: HOP-62 NSCLC
HOP-92 NSCLC = system: HOP-92 NSCLC
HS 578T breast = system: HS 578T breast
HT29 colon = system: HT29 colon
IGROV1 ovarian = system: IGROV1 ovarian
K-562 leukemia = system: K-562 leukemia
KM12 colon = system: KM12 colon
LOX IMVI melanoma = system: LOX IMVI melanoma
M14 melanoma = system: M14 melanoma
MALME-3M melanoma = system: MALME-3M melanoma
MCF7 breast = system: MCF7 breast
MDA-MB-231 breast = system: MDA-MB-231 breast
MDA-MB-435 = system: MDA-MB-435
MOLT-4 leukemia = system: MOLT-4 leukemia
NCI-H226 lung = system: NCI-H226 lung
NCI-H23 lung = system: NCI-H23 lung
NCI-H460 lung = system: NCI-H460 lung
NCI-H522 lung = system: NCI-H522 lung
NCI/ADR-RES ovarian = system: NCI/ADR-RES ovarian
OVCAR-3 ovarian = system: OVCAR-3 ovarian
OVCAR-4 ovarian = system: OVCAR-4 ovarian
OVCAR-5 ovarian = system: OVCAR-5 ovarian
OVCAR-8 ovarian = system: OVCAR-8 ovarian
PC-3 prostate = system: PC-3 prostate
RPMI-8226 leukemia = system: RPMI-8226 leukemia
RXF 393 renal = system: RXF 393 renal
SF-268 CNS = system: SF-268 CNS
SF-295 CNS = system: SF-295 CNS
SF-539 CNS = system: SF-539 CNS
SK-MEL-2 melanoma = system: SK-MEL-2 melanoma
SK-MEL-28 melanoma = system: SK-MEL-28 melanoma
SK-MEL-5 melanoma = system: SK-MEL-5 melanoma
SK-OV-3 ovarian = system: SK-OV-3 ovarian
SN12C renal = system: SN12C renal
SNB-19 CNS = system: SNB-19 CNS
SNB-75 CNS = system: SNB-75 CNS
SR leukemia = system: SR leukemia
SW-620 colon = system: SW-620 colon
T-47D breast = system: T-47D breast
TK-10 renal = system: TK-10 renal
U251 CNS = system: U251 CNS
UACC-257 melanoma = system: UACC-257 melanoma
UACC-62 melanoma = system: UACC-62 melanoma
UO-31 renal = system: UO-31 renal
EKVX NSCLC = system: EKVX NSCLC

## Cc1ccc(S(=O)(=O)Nc2cccc3[nH]c(C(F)(F)F)nc23)cc1
786-0 renal
  GI50: 1.94 µM
  TGI: 67.3 µM
A498 renal
  GI50: 0.262 µM
  TGI: 1.82 µM
A549 NSCLC
  GI50: 0.653 µM
  TGI: > 45.8 µM
ACHN renal
  GI50: 0.799 µM
  TGI: > 60.6 µM
BT-549 breast
  GI50: 0.62 µM
  TGI: 52 µM
CAKI-1 renal
  GI50: 0.337 µM
  TGI: 24.4 µM
CCRF-CEM leukemia
  GI50: 1.16 µM
  TGI: > 100 µM
COLO 205 colon
  GI50: 0.387 µM
  TGI: 10.7 µM
DU-145 prostate
  GI50: 1.2 µM
  TGI: > 39.9 µM
HCC-2998 colon
  GI50: 2.89 µM
  TGI: 40.3 µM
HCT-116 colon
  GI50: 0.414 µM
  TGI: > 100 µM
HCT-15 colon
  GI50: 0.408 µM
  TGI: > 100 µM
HL-60(TB) leukemia
  GI50: 0.39 µM
  TGI: 17.2 µM
HOP-62 NSCLC
  GI50: 1.21 µM
  TGI: 41.8 µM
HOP-92 NSCLC
  GI50: 0.957 µM
  TGI: 9.32 µM
HS 578T breast
  GI50: 0.887 µM
  TGI: 38.2 µM
HT29 colon
  GI50: 0.351 µM
  TGI: 7.31 µM
IGROV1 ovarian
  GI50: 0.832 µM
  TGI: > 100 µM
K-562 leukemia
  GI50: 0.269 µM
  TGI: > 100 µM
KM12 colon
  GI50: 0.347 µM
  TGI: 26.8 µM
LOX IMVI melanoma
  GI50: 0.829 µM
  TGI: > 100 µM
M14 melanoma
  GI50: 0.355 µM
  TGI: 38.6 µM
MALME-3M melanoma
  GI50: 1.95 µM
  TGI: 37.3 µM
MCF7 breast
  GI50: 0.389 µM
  TGI: > 54.5 µM
MDA-MB-231 breast
  GI50: 1.61 µM
  TGI: 22.5 µM
MDA-MB-435
  GI50: 0.204 µM
  TGI: > 100 µM
MOLT-4 leukemia
  GI50: 0.605 µM
  TGI: 29 µM
NCI-H226 lung
  GI50: 3.73 µM
  TGI: 29.1 µM
NCI-H23 lung
  GI50: 1.66 µM
  TGI: 41.5 µM
NCI-H460 lung
  GI50: 0.398 µM
  TGI: > 38.4 µM
NCI-H522 lung
  GI50: 0.15 µM
  TGI: 0.696 µM
NCI/ADR-RES ovarian
  GI50: 0.412 µM
  TGI: 42.9 µM
OVCAR-3 ovarian
  GI50: 0.426 µM
  TGI: > 100 µM
OVCAR-4 ovarian
  GI50: 1.54 µM
  TGI: 80.9 µM
OVCAR-5 ovarian
  GI50: 1.85 µM
  TGI: > 74.1 µM
OVCAR-8 ovarian
  GI50: 1.22 µM
  TGI: > 47.8 µM
PC-3 prostate
  GI50: 0.56 µM
  TGI: > 68.8 µM
RPMI-8226 leukemia
  GI50: 0.772 µM
  TGI: 13.7 µM
RXF 393 renal
  GI50: 1.17 µM
  TGI: 27.1 µM
SF-268 CNS
  GI50: 1.87 µM
  TGI: 54.6 µM
SF-295 CNS
  GI50: 0.283 µM
  TGI: 1.54 µM
SF-539 CNS
  GI50: 0.427 µM
  TGI: 2.06 µM
SK-MEL-2 melanoma
  GI50: 0.321 µM
  TGI: 3.54 µM
SK-MEL-28 melanoma
  GI50: 0.654 µM
  TGI: > 92.8 µM
SK-MEL-5 melanoma
  GI50: 0.429 µM
  TGI: 3.98 µM
SK-OV-3 ovarian
  GI50: 1.34 µM
  TGI: 25 µM
SN12C renal
  GI50: 2.72 µM
  TGI: > 89.2 µM
SNB-19 CNS
  GI50: 0.972 µM
  TGI: > 100 µM
SNB-75 CNS
  GI50: 0.314 µM
  TGI: 2.45 µM
SR leukemia
  GI50: 0.383 µM
  TGI: 22 µM
SW-620 colon
  GI50: 0.382 µM
  TGI: > 100 µM
T-47D breast
  GI50: 0.492 µM
  TGI: 57 µM
TK-10 renal
  GI50: 2.98 µM
  TGI: 61.8 µM
U251 CNS
  GI50: 0.466 µM
  TGI: 21.4 µM
UACC-257 melanoma
  GI50: 1.32 µM
  TGI: > 42 µM
UACC-62 melanoma
  GI50: 0.62 µM
  TGI: > 54 µM
UO-31 renal
  GI50: 1.3 µM
  TGI: > 57.5 µM

## COC(=O)[C@H]1CO[C@H]2C/C(C)=C/CC/C(C)=C/CC[C@@]3(C)O[C@@H]3C[C@H]21
786-0 renal
  TGI: > 50 µM
A498 renal
  TGI: > 50 µM
A549 NSCLC
  TGI: > 50 µM
ACHN renal
  TGI: > 50 µM
BT-549 breast
  TGI: 33.8 µM
CAKI-1 renal
  TGI: > 50 µM
CCRF-CEM leukemia
  TGI: 28.1 µM
COLO 205 colon
  TGI: 22.6 µM
DU-145 prostate
  TGI: > 50 µM
EKVX NSCLC
  TGI: > 50 µM
HCC-2998 colon
  TGI: 17.9 µM
HCT-116 colon
  TGI: 24.9 µM
HCT-15 colon
  TGI: 19.9 µM
HL-60(TB) leukemia
  TGI: 26.2 µM
HOP-62 NSCLC
  TGI: > 50 µM
HOP-92 NSCLC
  TGI: > 50 µM
HS 578T breast
  TGI: 36.5 µM
HT29 colon
  TGI: > 50 µM
IGROV1 ovarian
  TGI: > 50 µM
K-562 leukemia
  TGI: 16.1 µM
KM12 colon
  TGI: 18.4 µM
M14 melanoma
  TGI: > 50 µM
MCF7 breast
  TGI: > 50 µM
MDA-MB-231 breast
  TGI: 40.6 µM
MDA-MB-435
  TGI: 25.1 µM
MOLT-4 leukemia
  TGI: 28.7 µM
NCI-H226 lung
  TGI: 29.2 µM
NCI-H23 lung
  TGI: > 50 µM
NCI-H460 lung
  TGI: 21.9 µM
NCI-H522 lung
  TGI: 18.8 µM
NCI/ADR-RES ovarian
  TGI: 29 µM
OVCAR-3 ovarian
  TGI: 47.3 µM
OVCAR-4 ovarian
  TGI: > 50 µM
OVCAR-5 ovarian
  TGI: > 50 µM
OVCAR-8 ovarian
  TGI: > 50 µM
PC-3 prostate
  TGI: > 50 µM
RPMI-8226 leukemia
  TGI: > 50 µM
RXF 393 renal
  TGI: 42.6 µM
SF-268 CNS
  TGI: > 50 µM
SF-295 CNS
  TGI: > 50 µM
SF-539 CNS
  TGI: > 50 µM
SK-MEL-2 melanoma
  TGI: > 50 µM
SK-MEL-28 melanoma
  TGI: 34.9 µM
SK-MEL-5 melanoma
  TGI: 15.5 µM
SK-OV-3 ovarian
  TGI: > 50 µM
SN12C renal
  TGI: 24.3 µM
SNB-19 CNS
  TGI: > 50 µM
SNB-75 CNS
  TGI: 39.2 µM
SR leukemia
  TGI: 27.1 µM
SW-620 colon
  TGI: 24.2 µM
T-47D breast
  TGI: > 50 µM
TK-10 renal
  TGI: > 50 µM
U251 CNS
  TGI: > 50 µM
UACC-257 melanoma
  TGI: > 50 µM
UACC-62 melanoma
  TGI: 18.2 µM
UO-31 renal
  TGI: > 50 µM
